What all share (type): functional
One assay concerns Escherichia coli. Nature of the assay: Antibacterial activity against Escherichia coli IFO 3301 assessed as growth inhibition at 200 ug/disc after 24 hrs by agar disc-diffusion method. To be noted: IFO 3301, 24 h, read-out: DIZ. A general note: Agar diffusion results depend on both activity and mobility in agar.
A further assay has as its system Staphylococcus aureus. Nature of the assay: Antibacterial activity against Staphylococcus aureus IFO 3060 assessed as growth inhibition at 200 ug/disc after 24 hrs by agar disc-diffusion method. To be noted: IFO 3060, 24 h, read-out: DIZ.
Another assay has as its system Candida albicans. Nature of the assay: Antifungal activity against Candida albicans IFO 0583 assessed as growth inhibition at 200 ug/disc after 48 hrs by agar disc-diffusion method. To be noted: IFO 0583, 48 h, read-out: DIZ.
A further assay relates to Micrococcus luteus. Nature of the assay: Antibacterial activity against Micrococcus luteus IFO 3232 assessed as growth inhibition at 200 ug/disc after 24 hrs by agar disc-diffusion method. To be noted: IFO 3232, 24 h, read-out: DIZ.
Another assay deals with Pseudomonas aeruginosa. Nature of the assay: Antibacterial activity against Pseudomonas aeruginosa IFO 3448 assessed as growth inhibition at 200 ug/disc after 24 hrs by agar disc-diffusion method. The settings on record: IFO 3448, 24 h, read-out: DIZ.
In assay [1] the test system is Bacillus subtilis. Nature of the assay: Antibacterial activity against Bacillus subtilis IFO 3007 assessed as growth inhibition at 200 ug/disc after 24 hrs by agar disc-diffusion method. The settings on record: IFO 3007, 24 h, read-out: DIZ.
In assay [2] the test system is Bacillus subtilis. Briefly: Antibacterial activity against Bacillus subtilis IFO 3007 after 24 hrs by two fold dilution method. To be noted: IFO 3007, 24 h.

In brackets after ≈: the same amount, converted by molar mass.

The term MIC denotes the smallest concentration in the dilution series that meets the test's criterion for growth inhibition. The low end stands for a more susceptible organism, the high end for a less susceptible organism.

With `S=c1n(CNc2cc(Cl)cc(Cl)c2)nc(C23CC4CC(CC(C4)C2)C3)n1-c1ccc(Cl)cc1`, the zone of inhibition at 200 µg/disc is < 10 mm in the assay on Escherichia coli; 12 mm in the assay on Staphylococcus aureus; < 10 mm in the assay with Candida albicans; 11 mm in the assay with Micrococcus luteus; < 10 mm in the assay on Pseudomonas aeruginosa; 13 mm in the assay with Bacillus subtilis [1].
With `Fc1ccccc1NCn1nc(C23CC4CC(CC(C4)C2)C3)n(-c2ccc(Cl)cc2)c1=S`, the zone of inhibition at 200 µg/disc in the assay on Escherichia coli is < 10 mm; in the assay on Staphylococcus aureus it was 11 mm; in the assay with Candida albicans, < 10 mm; in the assay with Micrococcus luteus, 12 mm; with Pseudomonas aeruginosa, < 10 mm; with Bacillus subtilis [1], 12 mm.
With `CCOc1ccc(NCn2nc(C34CC5CC(CC(C5)C3)C4)n(C)c2=S)cc1`, the zone of inhibition at 200 µg/disc with Escherichia coli, with Staphylococcus aureus, with Candida albicans, in the assay with Micrococcus luteus, in the assay with Pseudomonas aeruginosa and in the assay on Bacillus subtilis [1] was < 10 mm throughout.
As to `FC(F)(F)c1cccc(NCn2nc(C34CC5CC(CC(C5)C3)C4)n(-c3ccc(Cl)cc3)c2=S)c1`, the zone of inhibition at 200 µg/disc with Escherichia coli was < 10 mm; in the assay with Staphylococcus aureus it was 16 mm; with Candida albicans, < 10 mm; with Micrococcus luteus it was 17 mm; in the assay on Pseudomonas aeruginosa, < 10 mm; in the assay with Bacillus subtilis [1], 16 mm.
For `Fc1ccc(NCn2nc(C34CC5CC(CC(C5)C3)C4)n(-c3ccc(Cl)cc3)c2=S)cc1`, the zone of inhibition at 200 µg/disc is < 10 mm in the assay with Escherichia coli; 14 mm in the assay with Staphylococcus aureus; < 10 mm in the assay with Candida albicans; 12 mm with Micrococcus luteus; < 10 mm with Pseudomonas aeruginosa; 16 mm in the assay on Bacillus subtilis [1].
As for `FC(F)(F)c1ccccc1NCn1nc(C23CC4CC(CC(C4)C2)C3)n(-c2ccc(Cl)cc2)c1=S`, the zone of inhibition at 200 µg/disc was 12 mm in the assay on Escherichia coli; 17 mm in the assay with Staphylococcus aureus; < 10 mm in the assay on Candida albicans; 14 mm in the assay on Micrococcus luteus; 11 mm with Pseudomonas aeruginosa; 19 mm with Bacillus subtilis [1]. Besides, in the assay with Bacillus subtilis [2], the MIC was determined as 16 µg/mL (≈ 30.8 µM).
Turning to `S=c1n(CNc2ccccc2)nc(C23CC4CC(CC(C4)C2)C3)n1-c1ccc(Cl)cc1`, the zone of inhibition at 200 µg/disc in the assay with Escherichia coli, in the assay with Staphylococcus aureus, in the assay with Candida albicans, in the assay with Micrococcus luteus, with Pseudomonas aeruginosa and with Bacillus subtilis [1] was < 10 mm in each case.
With `Cn1c(C23CC4CC(CC(C4)C2)C3)nn(CNc2ccccc2)c1=S`, the zone of inhibition at 200 µg/disc in the assay on Escherichia coli was < 10 mm; in the assay on Staphylococcus aureus, < 10 mm; in the assay on Candida albicans, < 10 mm; in the assay on Micrococcus luteus it was < 10 mm; in the assay with Pseudomonas aeruginosa it was < 10 mm; with Bacillus subtilis [1], 12 mm.
For `S=c1n(CN2CCN(c3ccccc3)CC2)nc(C23CC4CC(CC(C4)C2)C3)n1-c1ccc(Cl)cc1`, the zone of inhibition at 200 µg/disc in the assay with Escherichia coli was < 10 mm; in the assay on Staphylococcus aureus, 16 mm; with Candida albicans it was < 10 mm; in the assay with Micrococcus luteus, 14 mm; in the assay with Pseudomonas aeruginosa, < 10 mm; with Bacillus subtilis [1], 17 mm.
For `S=c1n(CNc2ccccc2Cl)nc(C23CC4CC(CC(C4)C2)C3)n1-c1ccc(Cl)cc1`, the zone of inhibition at 200 µg/disc was < 10 mm in the assay with Escherichia coli; 16 mm in the assay on Staphylococcus aureus; < 10 mm in the assay on Candida albicans; < 10 mm in the assay on Micrococcus luteus; < 10 mm with Pseudomonas aeruginosa; 11 mm in the assay on Bacillus subtilis [1].
Regarding `CCOc1ccc(NCn2nc(C34CC5CC(CC(C5)C3)C4)n(-c3ccc(Cl)cc3)c2=S)cc1`, the zone of inhibition at 200 µg/disc in the assay on Escherichia coli, in the assay with Staphylococcus aureus, with Candida albicans, in the assay with Micrococcus luteus, in the assay with Pseudomonas aeruginosa and in the assay with Bacillus subtilis [1] was < 10 mm in each case.
Regarding `Cn1c(C23CC4CC(CC(C4)C2)C3)nn(CNc2ccc(F)cc2)c1=S`, the zone of inhibition at 200 µg/disc was < 10 mm with Escherichia coli; 12 mm in the assay with Staphylococcus aureus; < 10 mm in the assay on Candida albicans; < 10 mm in the assay on Micrococcus luteus; < 10 mm in the assay with Pseudomonas aeruginosa; 12 mm with Bacillus subtilis [1].
Consider `Cn1c(C23CC4CC(CC(C4)C2)C3)nn(CNc2ccc(Br)cc2)c1=S`, for which the zone of inhibition at 200 µg/disc in the assay with Escherichia coli, in the assay on Staphylococcus aureus, in the assay with Candida albicans, with Micrococcus luteus, in the assay with Pseudomonas aeruginosa and in the assay on Bacillus subtilis [1] was < 10 mm each time.
On to `Fc1cccc(F)c1NCn1nc(C23CC4CC(CC(C4)C2)C3)n(-c2ccc(Cl)cc2)c1=S`, for which the zone of inhibition at 200 µg/disc with Escherichia coli is 14 mm; in the assay on Staphylococcus aureus, 18 mm; with Candida albicans it was 13 mm; with Micrococcus luteus it was 17 mm; in the assay on Pseudomonas aeruginosa, 11 mm; in the assay on Bacillus subtilis [1] it was 20 mm. In the assay on Bacillus subtilis [2], this compound yielded an MIC of 8 µg/mL (≈ 16.4 µM).
As to `CCOC(=O)N1CCN(Cn2nc(C34CC5CC(CC(C5)C3)C4)n(/N=C/c3ccc(O)cc3)c2=S)CC1`, the zone of inhibition at 200 µg/disc in the assay with Escherichia coli is < 10 mm; in the assay with Staphylococcus aureus, 17 mm; with Candida albicans it was < 10 mm; in the assay on Micrococcus luteus, 14 mm; with Pseudomonas aeruginosa, < 10 mm; in the assay on Bacillus subtilis [1], 16 mm.
For the compound `S=c1n(CN2CCN(Cc3ccccc3)CC2)nc(C23CC4CC(CC(C4)C2)C3)n1-c1ccc(Cl)cc1`, the zone of inhibition at 200 µg/disc with Escherichia coli is < 10 mm; with Staphylococcus aureus it was 11 mm; in the assay on Candida albicans, < 10 mm; in the assay on Micrococcus luteus it was 11 mm; in the assay with Pseudomonas aeruginosa it was < 10 mm; in the assay with Bacillus subtilis [1], 12 mm.
In the case of `CCN1CCN(Cn2nc(C34CC5CC(CC(C5)C3)C4)n(-c3ccc(Cl)cc3)c2=S)CC1`, the zone of inhibition at 200 µg/disc is < 10 mm in the assay with Escherichia coli; 14 mm in the assay with Staphylococcus aureus; < 10 mm with Candida albicans; 15 mm with Micrococcus luteus; < 10 mm in the assay with Pseudomonas aeruginosa; 18 mm with Bacillus subtilis [1]. The compound also showed an MIC in the assay with Bacillus subtilis [2] of 8 µg/mL (≈ 16.9 µM).
Turning to `S=c1n(CNc2ccc(Br)cc2)nc(C23CC4CC(CC(C4)C2)C3)n1-c1ccc(Cl)cc1`, the zone of inhibition at 200 µg/disc in the assay on Escherichia coli, in the assay on Staphylococcus aureus, in the assay on Candida albicans, in the assay with Micrococcus luteus, with Pseudomonas aeruginosa and in the assay with Bacillus subtilis [1] was < 10 mm in each case.

The values above are taken from ChEMBL document CHEMBL2424616, “Synthesis and antimicrobial activity of novel 5-(1-adamantyl)-2-aminomethyl-4-substituted-1,2,4-triazoline-3-thiones” (2013).
